{"source": "patent US20080299638A1", "about": "(priority 2004, published 2008)", "key": {"[1]": {"system": "HBV-DNA in supernatant of 2.2.15 cell culture", "experiment": "HBV-DNA dot blot in supernatant of 2.2.15 cell culture", "assay_type": "cell-based, hepatitis B virus", "conditions": "day 8; for HBV-DNA in cell culture supernatant, CPM: control 3808.34", "method": "Extraction of HBV-DNA from 2.2.15 cells supernatant: Grow 200000 cells/ml 2.2.15 cell on 24-well plate, 1 ml per well, add drugs after 24 hours incubation, change drug solution every 4 days with the same concentration, collect supernatant from cell culture after 8 days of incubation counted from the day drugs added into the culture, precipitate with polyethylene glycol, digest with proteinase K, extract with phenol:chloroform:isopentanol, nucleic acid precipitation by absolute ethanol and so on procedures, vacuum dry, re-dissolve in TE buffer as sample.\nDot blot: place dots: take 20 μl sample (contains 25 μg DNA), denature, neutralize, serial dilute 20×SSC buffer to 1:8 dilution on nitrocellulose membrane, oven dry, pre-hybridize, hybridize, wash membrane, radioactive self exposure and so on procedures. Develop X ray film with conventional method. Scan developed film with scanner, measure density with gel-pro software, calculate suppression rate and IC50."}, "[2]": {"system": "HBeAg", "experiment": "Suppression of HBeAg secretion in 2.2.15 cells (radioimmunoassay, cpm)", "assay_type": "cell-based, hepatitis B virus", "method": "(§1) Grow 200000 cells/ml 2.2.15 cell on 24-well plate, 1 ml per well, incubate for 24 hours under 5% CO2 at 37° C. […] 4 wells per concentration, incubate under 5% CO2 at 37° C., change drug solution every 4 days with the same concentration, retrieve culture medium at day 8, preserve at −20° C. Repeat experiment for 2 batches, test for HBsAg and HBeAg separately. Check cpm value for each wells using γ-counter.\n(§2) Calculating drug effectiveness: calculate the mean and standard deviation of cpm from the cell control group and groups with different drug concentration, P/N value and percent suppression, IC50 and SI. • (1)\n(§3) [formula] • (2) Calculate IC50 for drug suppression of antigen:\n(§4) [formula] • (4) Calculate the cpm differences between HBsAg and HBeAg in different dilutions and control groups by t-test."}, "[3]": {"system": "2.2.15 cells", "experiment": "Arginase toxicity to cells (CPE method, Reed-Muench)", "assay_type": "cell-based, human", "conditions": "8 days drug addition", "method": "Divide experiment into control group and test groups with different drug concentration. Digest cells, dilute to 200,000 cells/ml, transfer to culture plate, 100 μl per well for 96-well plate, incubate for 24 hours under 5% CO2 at 37° C., ready for experiment when cells grown into monolayer. […] Observe cytopathological changes, 8 days or 4 days under microscope, totally destroyed is 4; 75% destroyed is 3; 50% destroyed is 2, 25% destroyed is 1; no changes is 0. Calculate TC50 and TC0 according to Reed-Muench Method:\nA=log>50% drug concentration; B=log<50% drug concentration; C=log times of dilution\nStarting from 40 IU/ml and subsequently 20, 10, 5, 2.5 IU/ml, change drug solution every 4 days until 8 days, observe cytopathological changes under microscope, and check for CPE with microscope."}, "[4]": {"system": "HBsAg", "experiment": "Suppression of HBsAg secretion in 2.2.15 cells (radioimmunoassay, cpm)", "assay_type": "cell-based, hepatitis B virus", "method": "as §1, §2, §3, §4"}, "[5]": {"conditions": "Lamivudine 50 μg/ml, batch 1, day 8"}, "[6]": {"conditions": "Lamivudine 50 μg/ml, batch 2, day 8"}, "[7]": {"conditions": "Lamivudine 50 μg/ml, two batches average, day 8"}, "[8]": {"conditions": "Lamivudine 50 μg/ml, two batches average, day 8, listed as lamivudine"}, "[9]": {"conditions": "Lamivudine 100 μg/ml, batch 1, day 8"}, "[10]": {"conditions": "Lamivudine 100 μg/ml, batch 2, day 8"}, "[11]": {"conditions": "Lamivudine 100 μg/ml, two batches average, day 8"}, "[12]": {"conditions": "Lamivudine 100 μg/ml, two batches average, day 8, listed as lamivudine"}, "[13]": {"conditions": "Lamivudine 200 μg/ml, batch 1, day 8"}, "[14]": {"conditions": "Lamivudine 200 μg/ml, batch 2, day 8"}, "[15]": {"conditions": "Lamivudine 200 μg/ml, two batches average, day 8"}, "[16]": {"conditions": "Lamivudine 200 μg/ml, two batches average, day 8, listed as lamivudine"}, "[17]": {"conditions": "Lamivudine 400 μg/ml, batch 1, day 8"}, "[18]": {"conditions": "Lamivudine 400 μg/ml, batch 2, day 8"}, "[19]": {"conditions": "Lamivudine 400 μg/ml, two batches average, day 8"}, "[20]": {"conditions": "Lamivudine 400 μg/ml, two batches average, day 8, listed as lamivudine"}, "[21]": {"conditions": "Lamivudine 800 μg/ml, batch 1, day 8"}, "[22]": {"conditions": "Lamivudine 800 μg/ml, batch 2, day 8"}, "[23]": {"conditions": "Lamivudine 800 μg/ml, two batches average, day 8"}, "[24]": {"conditions": "Lamivudine 800 μg/ml, two batches average, day 8, listed as lamivudine"}}, "note": "Several values for one entry are separate records, joined by “and”; a condition that tells them apart may be missing. Equal values may be shown once.", "data": [{"smiles": "Nc1ccn([C@@H]2CS[C@H](CO)O2)c(=O)n1", "note": "[Lamivudine, lamivudine, reference compound]", "values": [{"measurement": "IC50", "setting": "[1]; Hepatitis B virus, 192 h, first batch experiment", "value": 114, "unit": "µg/mL"}, {"measurement": "% suppression of HBV-DNA in cell culture supernatant", "setting": "[1]; Lamivudine 50 μg/ml", "value": 25.6576, "unit": "%"}, {"measurement": "HBV-DNA in cell culture supernatant, CPM", "setting": "[1]; Lamivudine 50 μg/ml", "value": 2831.21, "unit": "CPM"}, {"measurement": "% suppression of HBV-DNA in cell culture supernatant", "setting": "[1]; Lamivudine 100 μg/ml", "value": 61.5237, "unit": "%"}, {"measurement": "HBV-DNA in cell culture supernatant, CPM", "setting": "[1]; Lamivudine 100 μg/ml", "value": 1465.31, "unit": "CPM"}, {"measurement": "% suppression of HBV-DNA in cell culture supernatant", "setting": "[1]; Lamivudine 200 μg/ml", "value": 71.6404, "unit": "%"}, {"measurement": "HBV-DNA in cell culture supernatant, CPM", "setting": "[1]; Lamivudine 200 μg/ml", "value": 1080.03, "unit": "CPM"}, {"measurement": "% suppression of HBV-DNA in cell culture supernatant", "setting": "[1]; Lamivudine 400 μg/ml", "value": 79.1083, "unit": "%"}, {"measurement": "HBV-DNA in cell culture supernatant, CPM", "setting": "[1]; Lamivudine 400 μg/ml", "value": 795.628, "unit": "CPM"}, {"measurement": "% suppression of HBV-DNA in cell culture supernatant", "setting": "[1]; Lamivudine 800 μg/ml", "value": 82.5905, "unit": "%"}, {"measurement": "HBV-DNA in cell culture supernatant, CPM", "setting": "[1]; Lamivudine 800 μg/ml", "value": 663.013, "unit": "CPM"}, {"measurement": "IC50", "setting": "[2]; Hepatitis B virus, 192 h, read-out: HBeAg IC50", "value": "> 800", "unit": "µg/mL"}, {"measurement": "HBeAg (CPM) % suppression", "setting": "[2]; [5]", "value": 13.20, "unit": "%"}, {"measurement": "HBeAg (CPM) % suppression", "setting": "[2]; [6]", "value": 14.99, "unit": "%"}, {"measurement": "HBeAg (CPM) % suppression", "setting": "[2]; [7]", "value": "14.10 ± 1.27", "unit": "%"}, {"measurement": "HBeAg (CPM) % suppression", "setting": "[2]; [8]", "value": "14.10±1.27", "unit": "%"}, {"measurement": "HBeAg (CPM) % suppression", "setting": "[2]; [9]", "value": 17.48, "unit": "%"}, {"measurement": "HBeAg (CPM) % suppression", "setting": "[2]; [10]", "value": 14.19, "unit": "%"}, {"measurement": "HBeAg (CPM) % suppression", "setting": "[2]; [11]", "value": "15.84 ± 2.33", "unit": "%"}, {"measurement": "HBeAg (CPM) % suppression", "setting": "[2]; [12]", "value": "15.84±2.33", "unit": "%"}, {"measurement": "HBeAg (CPM) % suppression", "setting": "[2]; [13]", "value": 16.35, "unit": "%"}, {"measurement": "HBeAg (CPM) % suppression", "setting": "[2]; [14]", "value": 19.31, "unit": "%"}, {"measurement": "HBeAg (CPM) % suppression", "setting": "[2]; [15]", "value": "17.83 ± 2.09", "unit": "%"}, {"measurement": "HBeAg (CPM) % suppression", "setting": "[2]; [16]", "value": "17.83±2.09", "unit": "%"}, {"measurement": "HBeAg (CPM) % suppression", "setting": "[2]; [17]", "value": 12.67, "unit": "%"}, {"measurement": "HBeAg (CPM) % suppression", "setting": "[2]; [18]", "value": 13.32, "unit": "%"}, {"measurement": "HBeAg (CPM) % suppression", "setting": "[2]; [19]", "value": "12.99 ± 0.46", "unit": "%"}, {"measurement": "HBeAg (CPM) % suppression", "setting": "[2]; [20]", "value": "12.99±0.46", "unit": "%"}, {"measurement": "HBeAg (CPM) % suppression", "setting": "[2]; [21]", "value": 6.10, "unit": "%"}, {"measurement": "HBeAg (CPM) % suppression", "setting": "[2]; [22]", "value": 10.37, "unit": "%"}, {"measurement": "HBeAg (CPM) % suppression", "setting": "[2]; [23]", "value": "8.23 ± 3.02", "unit": "%"}, {"measurement": "HBeAg (CPM) % suppression", "setting": "[2]; [24]", "value": "8.23±3.02", "unit": "%"}, {"measurement": "HBeAg IC50", "setting": "[2]; batch 1, day 8", "value": ">800", "unit": "µg/mL"}, {"measurement": "HBeAg IC50", "setting": "[2]; two batches average, day 8", "value": ">800 ± 0 TC0 800 μg/ml and >800 μg/ml"}, {"measurement": "TC0", "setting": "[3]", "value": "800 ± 0", "unit": "µg/mL"}, {"measurement": "TC50", "setting": "[3]", "value": 1198.97, "unit": "µg/mL"}, {"measurement": "TC0", "setting": "[3]; listed as lamivudine", "value": "800 ± 0", "unit": "µg/mL"}, {"measurement": "TC50", "setting": "[3]; listed as lamivudine", "value": "1198.97 ± 97.50 µg/mL and 1198.97 µg/mL"}, {"measurement": "IC50", "setting": "[4]; Hepatitis B virus, 192 h, read-out: HBsAg IC50", "value": "> 800", "unit": "µg/mL"}, {"measurement": "HBsAg (CPM) % suppression", "setting": "[4]; [5]", "value": 6.24, "unit": "%"}, {"measurement": "HBsAg (CPM) % suppression", "setting": "[4]; [6]", "value": 0.65, "unit": "%"}, {"measurement": "HBsAg (CPM) % suppression", "setting": "[4]; [7]", "value": "3.45 ± 3.95", "unit": "%"}, {"measurement": "HBsAg (CPM) % suppression", "setting": "[4]; [8]", "value": "3.45±3.95", "unit": "%"}, {"measurement": "HBsAg (CPM) % suppression", "setting": "[4]; [9]", "value": 12.05, "unit": "%"}, {"measurement": "HBsAg (CPM) % suppression", "setting": "[4]; [10]", "value": 5.15, "unit": "%"}, {"measurement": "HBsAg (CPM) % suppression", "setting": "[4]; [11]", "value": "8.6 ± 4.88", "unit": "%"}, {"measurement": "HBsAg (CPM) % suppression", "setting": "[4]; [12]", "value": "8.60±4.88", "unit": "%"}, {"measurement": "HBsAg (CPM) % suppression", "setting": "[4]; [13]", "value": 2.35, "unit": "%"}, {"measurement": "HBsAg (CPM) % suppression", "setting": "[4]; [14]", "value": 8.99, "unit": "%"}, {"measurement": "HBsAg (CPM) % suppression", "setting": "[4]; [15]", "value": "5.67 ± 4.7", "unit": "%"}, {"measurement": "HBsAg (CPM) % suppression", "setting": "[4]; [16]", "value": "5.67±4.70", "unit": "%"}, {"measurement": "HBsAg (CPM) % suppression", "setting": "[4]; [17]", "value": 8.10, "unit": "%"}, {"measurement": "HBsAg (CPM) % suppression", "setting": "[4]; [18]", "value": 0, "unit": "%"}, {"measurement": "HBsAg (CPM) % suppression", "setting": "[4]; [19]", "value": "4.05 ± 5.73", "unit": "%"}, {"measurement": "HBsAg (CPM) % suppression", "setting": "[4]; [20]", "value": "4.05±5.73", "unit": "%"}, {"measurement": "HBsAg (CPM) % suppression", "setting": "[4]; [21]", "value": 0, "unit": "%"}, {"measurement": "HBsAg (CPM) % suppression", "setting": "[4]; [22]", "value": 9.299, "unit": "%"}, {"measurement": "HBsAg (CPM) % suppression", "setting": "[4]; [23]", "value": "4.65 ± 6.58", "unit": "%"}, {"measurement": "HBsAg (CPM) % suppression", "setting": "[4]; [24]", "value": "4.65±6.58", "unit": "%"}, {"measurement": "HBsAg IC50", "setting": "[4]; batch 1, day 8", "value": ">800", "unit": "µg/mL"}, {"measurement": "HBsAg IC50", "setting": "[4]; two batches average, day 8", "value": ">800 ± 0 TC0 μg/ml and >800 μg/ml"}]}]}
